{
  "source": "patent US8097440B1",
  "about": "“Engineered microorganisms capable of producing target compounds under anaerobic conditions” (Gevo, Inc., priority 2008, dated 2012)",
  "key": {"[1]": {"molecular_target": "T1, E. coli KARI Ec_IlvC variant Ec_IlvC^B8-his6 (Q110V, S78D), SEQ ID NO: 27 (Escherichia coli, UniProt P05793, Q110V/S78D)", "T1 sequence (P05793 with tags, fused parts or gaps S78D/Q110V)": "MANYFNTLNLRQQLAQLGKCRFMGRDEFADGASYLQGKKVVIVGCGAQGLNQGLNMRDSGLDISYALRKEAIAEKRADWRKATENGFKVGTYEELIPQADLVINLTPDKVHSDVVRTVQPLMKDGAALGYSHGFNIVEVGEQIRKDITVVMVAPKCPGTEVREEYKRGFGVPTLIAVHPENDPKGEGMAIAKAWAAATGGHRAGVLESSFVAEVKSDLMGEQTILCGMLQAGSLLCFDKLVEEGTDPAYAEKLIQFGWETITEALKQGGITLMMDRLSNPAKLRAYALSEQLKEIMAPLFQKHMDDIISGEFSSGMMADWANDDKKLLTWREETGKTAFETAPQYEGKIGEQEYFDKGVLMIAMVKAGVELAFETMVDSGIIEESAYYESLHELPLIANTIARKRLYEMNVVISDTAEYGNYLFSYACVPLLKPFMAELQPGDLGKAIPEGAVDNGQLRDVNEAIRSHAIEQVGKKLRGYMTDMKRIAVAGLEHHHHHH", "assay": "KARI cuvette assay, purified Ec_IlvC^B8-his6", "type": "biochemical", "procedure": "(§1) KARI cuvette assay: KARI activity was assayed kinetically by monitoring the decrease in NAD(P)H concentration by measuring the absorbance at 340 nm. A reaction buffer was prepared containing 250 mM potassium phosphate pH 7, 1 mM DTT and 10 mM MgCl2. Cell pellets were resuspended (0.25 g wet weight/mL buffer) in 250 mM potassium phosphate (KPi) buffer containing 1 mM DTT and 10 mM MgCl2. The resuspended cells were lysed by sonication for 1 min with a 50% duty cycle and pelleted at 11000×g and 4° C. for 15 min. A reaction mixture consisting of 910 μl reaction buffer, 50 μl acetolactate, and 20 μl lysate was prepared in a cuvette. The reaction was initiated by addition of 20 μL of 10 mM NAD(P)H. A substrate free control was conducted using reaction buffer without the addition of acetolactate.\n(§2) Purification of KARI: Cell pellets used for purification were resuspended in purification buffer A (20 mM Tris, 20 mM imidazol, 100 mM NaCl, 10 mM MgCl2, pH 7.4). KARI was purified by IMAC (Immobilized metal affinity chromatography) over a 1 ml Histrap High Performance (histrap HP) column pre-charged with Nickel (GE Healthcare) using an Akta FPLC system (GE Healthcare). […]"}, "[2]": {"molecular_target": "T2, E. coli KARI Ec_IlvC variant Ec_IlvC^S78D-his6 (S78D), SEQ ID NO: 17 (Escherichia coli, UniProt P05793, S78D)", "T2 sequence (P05793 with tags, fused parts or gaps S78D)": "T1 sequence (P05793 with tags, fused parts or gaps S78D/Q110V) with V110Q", "assay": "KARI cuvette assay, purified Ec_IlvC^S78D-his6", "type": "biochemical", "conditions": "relative to Ec_IlvC^his6 with NADPH", "procedure": "as §1, §2"}},
  "note": "Residue numbers refer to the chain shown, from its start.",
  "data": [
    {"compound": "NC(=O)C1=CN([C@@H]2O[C@H](COP(=O)(O)OP(=O)(O)OC[C@H]3O[C@@H](n4cnc5c(N)ncnc54)[C@H](O)[C@@H]3O)[C@@H](O)[C@H]2O)C=CC1", "note": "[NADH, nicotinamide adenine dinucleotide]", "values": [
      {"measurement": "kcat/KM", "setting": "[1]; purified, acetolactate as substrate", "result": 31775, "unit": "M⁻¹ s⁻¹"},
      {"measurement": "(kcat/KM with NADH)/(kcat/KM of Ec_IlvC^his6 with NADPH)", "setting": "[1]; relative to Ec_IlvC^his6 with NADPH", "result": 36, "unit": "%"},
      {"measurement": "(kcat/KM with NADH)/(kcat/KM of Ec_IlvC^his6 with NADPH)", "setting": "[2]", "result": 32, "unit": "%"}
    ]}
  ]
}
